Test results as given in patent publication EP4623911A1, “PI4KB INHIBITORS FOR THE TREATMENT OF FATTY LIVER DISEASE” (ETH Zurich, priority 2024, dated 2025).

Columns and labels:
ATGL = ATGL protein quantification via immunoblot in HEK293T cell type; format: cell-based, human; conditions: Golgi Ptdlns4P depleted by UCB9608, then glucose deprivation
Experimental: HEK293T and HEK293-AAV cell types were cultured in DMEM (high glucose) with 10% FBS and 1% Pen/Strep. HEK293-AAV cell type was used for imaging whereas HEK293T cells were adopted for the rest of the work. To overexpress EGFP-P4M, EGFP-SACM1L, EGFP-SACM1LK2A, ATGL-FLAG, ATGL-HA, ATGLK0-HA and FBXW8-FLAG in the HEK cells, Lipofectamine 2000 was used to deliver these plasmids for 24 h expression at 60-80% cell confluence according to the manufacturer's instructions, followed by specific treatments based on experimental designs. To image LDs abundance, HEK293-AAV cell type was induced by 200 µM oleic acid (OA, 01008 from Sigma) conjugated to bovine serum albumin (BSA, A6003 from Sigma) to generate LDs for 24 h prior to 4% PFA fixation. Afterwards, cells were stained by BODIPY 493/503 and Hoechst 33342 for LDs and nuclei labelling, respectively. In other conditions, HEK cells were not treated with OA containing medium. […]
Adipose depots, liver pieces, differentiated iBAs, HepG2, HEK293T and HEK293-AAV cell types were homogenized in RIPA buffer (50 mM Tris-HCl pH 7.4, 150 mM NaCl, 2 mM EDTA, 1.0% Triton X100, 0.5% sodium deoxycholate) with protease inhibitors (Complete, Roche) and phosphatase inhibitors (Halt phosphatase inhibitor cocktail, ThermoFisher). […] The concentration of WCE was determined by DC Protein Assay (Bio-Rad). […]

[1] = Indirect calorimetry in HFD-fed mice; format: in vivo; conditions: HFD mixed with UCB9608 (5 mg/kg) for 3 weeks, vs DMSO
Experimental: 8-10 weeks old C57BL/6N male mice were fed on HFD mixing with DMSO or UCB9608 (5 mg/kg) for 3 weeks before indirect calorimetry measurements were performed with Phenomaster (TSE systems) according to the manufacturer's instructions. Animals were single caged and adapted to the metabolic cage for 48h prior to metabolic recording. The energy expenditure between both groups was analyzed via ANCOVA method and RER was analyzed via two-way ANOVA method.

SMILES: COc1ccc(NC(=O)N2CCN(c3nc(N)nc4c3cnn4C)[C@@H](C)C2)c(C)c1 [UCB9608]
- ATGL response to glucose deprivation (ATGL): loss of ATGL regulation
- energy expenditure [1]: higher
